Converted amounts (≈) assume the structure as drawn.
Columns and labels:
[1] = test system: Candida albicans; experiment: microbe, parasite or virus in culture; conditions: ATCC 90028, ASSAY_TEST Inhibition of Fungal Growth, detection method Absorption (OD530), plate type 384well, NBS, CORNING #3640
Description: Antifungal activity against Candida albicans ATCC 90028 (CO-ADD:FG_001); MIC in YNB media using NBS plates, by OD630

[2] = test system: Escherichia coli; experiment: microbe, parasite or virus in culture; conditions: ATCC 25922, 18 h, ASSAY_TEST Inhibition of Bacterial Growth, detection method Absorption (OD600), MEDIA CAMHB, plate type 384well, NBS, CORNING #3640
Description: Antibacterial activity against Escherichia coli ATCC 25922 (CO-ADD:GN_001); MIC in CAMBH media using NBS plates, by OD(600)

[3] = test system: Klebsiella pneumoniae; experiment: microbe, parasite or virus in culture; conditions: ATCC 700603, 18 h, ASSAY_TEST Inhibition of Bacterial Growth, detection method Absorption (OD600), MEDIA CAMHB, plate type 384well, NBS, CORNING #3640
Description: Antibacterial activity against Klebsiella pneumoniae MDR ATCC 70063 (CO-ADD:GN_003); MIC in CAMBH media using NBS plates, by OD(600)

[4] = test system: Acinetobacter baumannii; experiment: microbe, parasite or virus in culture; conditions: ATCC 19606, 18 h, ASSAY_TEST Inhibition of Bacterial Growth, detection method Absorption (OD600), MEDIA CAMHB, plate type 384well, NBS, CORNING #3640
Description: Antibacterial activity against Acinetobacter baumannii ATCC 19606 (CO-ADD:GN_034); MIC in CAMBH media using NBS plates, by OD600

[5] = test system: Staphylococcus aureus; experiment: microbe, parasite or virus in culture; conditions: ATCC 43300, 18 h, ASSAY_TEST Inhibition of Bacterial Growth, detection method Absorption (OD600), MEDIA CAMHB, plate type 384well, NBS, CORNING #3640
Description: Antibacterial activity against Staphylococcus aureus MRSA ATCC 43300 (CO-ADD:GP_020); MIC in CAMBH media, using NBS plates, by OD(600)

[6] = test system: Pseudomonas aeruginosa; experiment: Antibacterial activity against Pseudomonas aeruginosa PAO397 [PAO1 d(mexAB-oprM) d(mexCD-oprJ) d(mexEF-oprN) d(mexJKL) d(mexXY) d(opmH)] (CO-ADD:GN_211); MIC in CAMBH media using NBS plates, by OD(600); format: functional; conditions: ASSAY_TEST Inhibition of Bacterial Growth, detection method Absorption (OD600), MEDIA CAMHB, plate type 384well, CORNING #3640, time 18 hr
[7] = test system: Pseudomonas aeruginosa; experiment: microbe, parasite or virus in culture; conditions: ATCC 27853, 18 h, ASSAY_TEST Inhibition of Bacterial Growth, detection method Absorption (OD600), MEDIA CAMHB, plate type 384well, NBS, CORNING #3640
Description: Antibacterial activity against Pseudomonas aeruginosa ATCC 27853 (CO-ADD:GN_042); MIC in CAMBH media using NBS plates, by OD(600)

[8] = test system: Cryptococcus neoformans
Description: Antifungal activity against Cryptococcus neoformans H99 ATCC 208821 (CO-ADD:FG_002); MIC in YNB media using NBS plates, by Resazurin OD(600-570)

[9] = test system: HEK293; experiment: cells; format: functional, Homo sapiens, ATCC CRL1573; conditions: Homo sapiens, ATCC CRL1573, HEK293; ASSAY_TEST Inhibition of Cell Viability; detection method Resazurin; Fluorescence (ex560/em590); MEDIA DMEM with 10% FBS; plate type 384well; TC; CORNING #3712; time 18 hr; read-out: CC50

Compound	MIC [1] [µM]	MIC [2] [µM]	MIC [3] [µM]	MIC [4] [µM]	MIC [5] [µM]	MIC [6] [µM]	MIC [7] [µM]	MIC [8] [µM]	CC50 [9] [µM]
Fc1ccc(-c2nc(-c3c[nH]c4ccc(Br)cc34)[nH]c2-c2ccc(F)cc2)cc1	> 20	> 20	> 20	> 20	> 20	> 20	> 20	> 20	9.15
CC(C)(C)c1ccc(OCCn2nc(C(=O)O)c3ccccc3c2=O)cc1	> 20	> 20	> 20	> 20	> 20	> 20	> 20	> 20	> 20
O=C(NCc1ccc2c3c(cccc13)C(=O)N2)c1cccs1	> 20	> 20	> 20	> 20	> 20	> 20	> 20	> 20	> 20
CC1CN(c2ncnc3c2c(-c2ccccc2)cn3-c2ccc(F)cc2)CC(C)O1 (stereo unspecified)	> 20	> 20	> 20	> 20	> 20	> 20	> 20	> 20	> 20
COc1ccc(SCC(=O)N2c3ccccc3Sc3ccccc32)cc1	> 20	> 20	> 20	> 20	> 20	> 20	> 20	> 20	> 20
O=S(=O)(Nc1ccc(-n2cccc2)cc1)c1ccc(Cl)c(Cl)c1	> 20	> 20	> 20	> 20	> 20	> 20	> 20	> 20	> 20
CC(C)(C)c1cc(CCC(=O)N2CCC2)cc(C(C)(C)C)c1O	> 20	> 20	> 20	> 20	> 20	> 20	> 20	> 20	> 20
Clc1cccc(-c2nnc(-c3ccccc3)o2)c1	> 20	> 20	> 20	> 20	> 20	> 20	> 20	> 20	> 20
OCCCCn1cnc2c(O)nc(NCc3ccc(Cl)c(Cl)c3)nc21	> 20	> 20	> 20	> 20	> 20	> 20	> 20	> 20	> 20
O=C(O)c1ccc(-c2ccc(O[C@H]3O[C@H](CO)[C@@H](O)[C@H](O)[C@@H]3O)cc2)cc1	> 20	> 20	> 20	> 20	> 20	> 20	> 20	> 20	> 20
O=C(CCCC(F)(F)F)N1CCC(c2nc(-c3nccs3)no2)CC1	> 20	> 20	> 20	> 20	> 20	> 20	> 20	> 20	> 20
Nc1nc(Nc2ccc3nc(-c4ccc(F)cc4)cc(N)c3c2)cc(-c2ccccc2)n1	0.625 (≈ 0.264 µg/mL)	> 20	> 20	> 20	10 (≈ 4.22 µg/mL)	> 20	> 20	≤ 0.156	0.751
CCc1cc(O)c(Oc2cccnc2N)cc1F	> 20	1.25 (≈ 0.31 µg/mL)	20 (≈ 4.97 µg/mL)	> 20	1.25 (≈ 0.31 µg/mL)	> 20	2.5 (≈ 0.621 µg/mL)	> 20	> 20
COc1c(NC(=O)[C@H]2CC[C@@H](COc3ccc([N+](=O)[O-])cc3)CC2)c(F)cc2c(=O)c(C(=O)O)cn(C3CC3)c12	> 20	> 20	> 20	> 20	20 (≈ 11.1 µg/mL)	> 20	> 20	> 20	> 20
O=S(=O)(Nc1cccc2cccnc12)c1ccccc1	> 20	> 20	> 20	> 20	> 20	> 20	> 20	> 20	2.25
Cc1nc(-c2ccc(C3N(C)c4ccc(F)cc4C(=O)N3c3ccccc3)s2)cs1 (stereo unspecified)	> 20	> 20	> 20	> 20	> 20	> 20	> 20	> 20	> 20
CCCC(=O)OCCc1ccccc1	> 20	> 20	> 20	> 20	> 20	> 20	> 20	> 20	> 20
CC(C)(C)c1cc(C(=O)/C(C#N)=N/Nc2cccc(Cl)c2)no1	> 20	> 20	> 20	> 20	> 20	> 20	> 20	> 20	> 20
c1ccc(Cn2c(-c3ccccn3)nc3ccccc32)cc1	> 20	> 20	> 20	> 20	> 20	> 20	> 20	> 20	> 20
CC(=N)N1CC[C@H](SC2=C(C(=O)O)N3C(=O)[C@@H]([C@@H](C)O)[C@H]3C2)C1	> 20	> 20	> 20	> 20	> 20	> 20	> 20	> 20	> 20
CCCCCOc1ccc(/C=C2\Oc3c(ccc(O)c3O)C2=O)c(O)c1	> 20	> 20	> 20	> 20	> 20	> 20	> 20	> 20	> 20
N=C(N)c1ccc(COc2ccc(Cl)cc2)cc1	> 20	> 20	> 20	> 20	> 20	> 20	> 20	> 20	> 20
Nc1nnnn1CCOc1c2[nH]c3ccc(Cl)cc3c2cc2c1[nH]c1ccc(Cl)cc12	> 20	> 20	> 20	> 20	> 20	> 20	> 20	> 20	19.9
O=C(N[C@H](CCS)C(=O)N[C@H](Cc1ccccc1)C(=O)O)c1cc2ccccc2[nH]1	> 20	> 20	> 20	> 20	> 20	> 20	> 20	> 20	> 20
C[C@@H]1O[C@@H]1P(=O)(O)O	> 20	> 20	> 20	> 20	> 20	> 20	> 20	> 20	> 20
NC1(C(=O)O)CCP(=O)(O)CC1 (stereo unspecified)	> 20	> 20	> 20	> 20	> 20	> 20	> 20	> 20	> 20
CCc1nc2ccccn2c1C(=O)NCc1ccccc1	> 20	> 20	> 20	> 20	> 20	> 20	> 20	> 20	> 20
C[C@H]1CC[C@@]2(O)C(C)(C)[C@@H]3CC[C@@]2(C)[C@H]1C3	> 20	> 20	> 20	> 20	> 20	> 20	> 20	> 20	> 20
Nc1cc(N)c2nc(-c3ccccc3)c(Nc3ccc(F)cc3)nc2c1	> 20	> 20	> 20	> 20	> 20	> 20	> 20	> 20	1.91

From ChEMBL document CHEMBL4513161, “CO-ADD screening of MMV (CH) - Pandemic Response Box” (2021)
